# Literature values in patent publication US7842686B2, “CGRP receptor antagonists” (Vertex Pharmaceuticals Incorporated, priority 2006, dated 2010).
# No end group written: not given here.
# Legend:
# facial blood flow [1] = conditions: rat, trigeminal ganglion stimulation
# middle meningeal artery = conditions: rats, electrical stimulation of the dura mater, prior administration
# facial blood flow [2] = conditions: marmoset, electrical stimulation of the trigeminal ganglion
# [3] = tested on: acute attacks of migraine; conditions: clinical trials (Olesen et al. 2004)
Compound,effect on increase of facial blood flow (facial blood flow [1]),effect on increase of middle meningeal artery diameter (middle meningeal artery),effect on increase in facial blood flow (facial blood flow [2]),efficacy in acute attacks of migraine [3]
"CGRP(8-37): a peptide CGRP antagonist (VTHRLAGLLSRSGGVVKNNFVPTNVGSKAF-NH2; ends and bridges not checked; UniProt P06881 90-119, looked up, fragment)",inhibited,blocked,,
NCCCC[C@H](NC(=O)[C@@H](Cc1cc(Br)c(O)c(Br)c1)NC(=O)N1CCC(N2Cc3ccccc3NC2=O)CC1)C(=O)N1CCN(c2ccncc2)CC1 [BIBN4096BS],,,could be blocked,effective in treating acute attacks of migraine
